Consider 41 compounds from ChEMBL document CHEMBL1201862, “PubChem BioAssay data set” (2004).

Calls of active or inactive are those of the source. Where only a bound is given, the exact number is not on record here.

Among the targets are Cytochrome P450 2D6 (Homo sapiens, UniProt P10635); Cytochrome P450 2C9 (Homo sapiens, UniProt P11712); Cytochrome P450 3A4 (Homo sapiens, UniProt P08684).
Another assay concerns the target T1, Cytochrome P450 1A2 (Homo sapiens, UniProt P05177).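 Also: PubChem cytochrome P450 panel assay, CYP1A2 panel member.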
T1 sequence (P05177 whole entry): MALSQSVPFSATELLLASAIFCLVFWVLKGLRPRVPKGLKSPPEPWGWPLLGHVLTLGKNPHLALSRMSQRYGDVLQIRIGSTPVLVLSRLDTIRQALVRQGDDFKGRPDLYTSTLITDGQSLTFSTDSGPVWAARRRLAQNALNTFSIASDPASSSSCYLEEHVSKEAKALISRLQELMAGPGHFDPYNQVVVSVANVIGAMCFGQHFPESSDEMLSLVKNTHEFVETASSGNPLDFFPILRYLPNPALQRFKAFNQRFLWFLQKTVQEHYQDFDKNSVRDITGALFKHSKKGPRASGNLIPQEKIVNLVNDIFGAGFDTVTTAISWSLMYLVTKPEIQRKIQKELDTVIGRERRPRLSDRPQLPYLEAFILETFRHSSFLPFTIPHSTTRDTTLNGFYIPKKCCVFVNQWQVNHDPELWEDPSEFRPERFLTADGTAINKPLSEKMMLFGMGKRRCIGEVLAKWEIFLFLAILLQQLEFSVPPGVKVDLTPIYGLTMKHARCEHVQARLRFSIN

A further assay concerns the target Cytochrome P450 2C19 (Homo sapiens, UniProt P33261). As to the kind of experiment: Cytochrome panel assay with activity outcomes. Panel member name: p450-cyp2c19 Compounds with AC50 equal or less than 10 uM are considered active. The following applies: read-out: AC50. Format: functional.
In the next assay the target is T2, Streptokinase A (Streptococcus pyogenes serotype M1, UniProt P10520).
T2 sequence (P10520 whole entry): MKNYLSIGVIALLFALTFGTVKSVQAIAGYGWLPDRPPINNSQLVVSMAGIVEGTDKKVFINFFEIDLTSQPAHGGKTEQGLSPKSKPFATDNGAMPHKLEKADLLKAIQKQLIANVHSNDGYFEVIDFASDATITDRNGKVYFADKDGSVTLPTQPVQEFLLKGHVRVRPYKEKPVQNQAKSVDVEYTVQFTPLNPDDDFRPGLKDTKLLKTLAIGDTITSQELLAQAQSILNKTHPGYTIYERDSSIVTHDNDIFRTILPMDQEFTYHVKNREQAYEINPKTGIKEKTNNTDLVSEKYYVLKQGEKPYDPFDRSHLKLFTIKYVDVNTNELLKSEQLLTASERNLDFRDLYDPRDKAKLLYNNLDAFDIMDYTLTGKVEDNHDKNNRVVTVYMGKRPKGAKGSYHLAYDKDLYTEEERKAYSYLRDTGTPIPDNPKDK
As to the kind of experiment: S. pyogenes streptokinase expression inhibitors, potency, dose response, plasminogen activation absorbance, OD405 (AID 1914).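 Also: secreted streptokinase activity via plasminogen activation per viability signal from cell pellet.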 Format: functional, Streptococcus pyogenes M1 GAS.

For assay [1], the target named is T3, Corticotropin-releasing factor receptor 2/Corticotropin-releasing factor-binding protein (Homo sapiens, UniProt P24387+Q13324).
T3 sequence (Q13324 whole entry): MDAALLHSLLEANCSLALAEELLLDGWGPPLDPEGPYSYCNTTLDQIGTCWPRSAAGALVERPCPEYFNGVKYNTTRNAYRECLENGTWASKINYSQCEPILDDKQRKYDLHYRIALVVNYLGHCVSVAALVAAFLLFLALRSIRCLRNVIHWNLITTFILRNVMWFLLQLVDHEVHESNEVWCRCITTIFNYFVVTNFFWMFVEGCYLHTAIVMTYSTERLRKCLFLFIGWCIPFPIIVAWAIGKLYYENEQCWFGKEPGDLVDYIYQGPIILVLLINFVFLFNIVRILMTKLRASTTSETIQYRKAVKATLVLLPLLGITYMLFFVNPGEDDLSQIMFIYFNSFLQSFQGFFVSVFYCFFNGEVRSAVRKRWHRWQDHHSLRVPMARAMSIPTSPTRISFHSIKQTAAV
T3 sequence (P24387 whole entry): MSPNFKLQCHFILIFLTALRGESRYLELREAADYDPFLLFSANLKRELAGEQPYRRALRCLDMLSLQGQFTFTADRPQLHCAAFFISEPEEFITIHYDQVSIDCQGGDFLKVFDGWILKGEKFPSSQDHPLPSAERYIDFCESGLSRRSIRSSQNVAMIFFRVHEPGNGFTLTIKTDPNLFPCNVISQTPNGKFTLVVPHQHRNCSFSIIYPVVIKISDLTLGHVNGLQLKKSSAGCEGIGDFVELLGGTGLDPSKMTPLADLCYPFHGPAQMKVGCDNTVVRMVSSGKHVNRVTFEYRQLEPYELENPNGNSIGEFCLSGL
Briefly: activators of CRF receptor 2 with binding protein – uHTS hits, confirmation (AID 602473). Format: functional. The following applies: read-out: EC50_Mean.

For assay [2], the target named is T3, Corticotropin-releasing factor receptor 2/Corticotropin-releasing factor-binding protein. As to the kind of experiment: Dose Response confirmation of uHTS hits for small molecule antagonists of the CRF-binding protein and CRF-R2 receptor complex. Format: functional. The following applies: read-out: IC50_Mean.
The target in a further assay is Paired box protein Pax-8 (Homo sapiens, UniProt Q06710). As to the kind of experiment: inhibitors of PAX8-driven TPO luciferase reporter, dose response, RMG-I cells, cherry-pick (AID 687027).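 Also: luciferase reporter driven by Pax8 target thyroperoxidase promoter measured by SteadyGlo luminescence.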 Format: functional, cell-based. In general terms: A reporter such as luciferase makes a cellular process visible.
Sequence of Paired box protein Pax-8 (Q06710 whole entry): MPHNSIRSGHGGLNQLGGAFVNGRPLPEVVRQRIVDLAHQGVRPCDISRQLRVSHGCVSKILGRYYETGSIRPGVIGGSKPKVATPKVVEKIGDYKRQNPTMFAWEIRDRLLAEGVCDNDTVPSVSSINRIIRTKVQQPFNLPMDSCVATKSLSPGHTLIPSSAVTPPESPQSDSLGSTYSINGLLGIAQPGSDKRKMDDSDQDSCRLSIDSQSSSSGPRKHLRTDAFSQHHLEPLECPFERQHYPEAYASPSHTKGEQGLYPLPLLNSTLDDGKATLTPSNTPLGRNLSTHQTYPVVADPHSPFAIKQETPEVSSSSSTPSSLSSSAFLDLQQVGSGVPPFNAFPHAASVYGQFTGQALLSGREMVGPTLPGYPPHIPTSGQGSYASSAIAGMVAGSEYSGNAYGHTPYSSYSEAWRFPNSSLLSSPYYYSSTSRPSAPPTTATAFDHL

Sequence of Cytochrome P450 2C9 (P11712 whole entry): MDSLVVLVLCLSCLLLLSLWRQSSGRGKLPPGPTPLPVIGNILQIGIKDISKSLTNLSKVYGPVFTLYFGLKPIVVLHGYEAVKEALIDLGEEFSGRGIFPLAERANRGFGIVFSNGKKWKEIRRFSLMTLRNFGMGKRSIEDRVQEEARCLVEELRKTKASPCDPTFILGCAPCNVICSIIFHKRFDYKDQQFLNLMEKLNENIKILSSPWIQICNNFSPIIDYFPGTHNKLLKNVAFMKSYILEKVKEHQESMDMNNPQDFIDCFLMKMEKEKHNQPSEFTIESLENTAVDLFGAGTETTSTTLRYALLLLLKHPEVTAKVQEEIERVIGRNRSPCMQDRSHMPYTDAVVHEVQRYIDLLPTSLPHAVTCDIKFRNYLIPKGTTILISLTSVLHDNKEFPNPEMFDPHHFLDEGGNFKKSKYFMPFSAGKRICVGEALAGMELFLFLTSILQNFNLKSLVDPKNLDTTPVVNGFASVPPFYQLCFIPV
Sequence of Cytochrome P450 2D6 (P10635 whole entry): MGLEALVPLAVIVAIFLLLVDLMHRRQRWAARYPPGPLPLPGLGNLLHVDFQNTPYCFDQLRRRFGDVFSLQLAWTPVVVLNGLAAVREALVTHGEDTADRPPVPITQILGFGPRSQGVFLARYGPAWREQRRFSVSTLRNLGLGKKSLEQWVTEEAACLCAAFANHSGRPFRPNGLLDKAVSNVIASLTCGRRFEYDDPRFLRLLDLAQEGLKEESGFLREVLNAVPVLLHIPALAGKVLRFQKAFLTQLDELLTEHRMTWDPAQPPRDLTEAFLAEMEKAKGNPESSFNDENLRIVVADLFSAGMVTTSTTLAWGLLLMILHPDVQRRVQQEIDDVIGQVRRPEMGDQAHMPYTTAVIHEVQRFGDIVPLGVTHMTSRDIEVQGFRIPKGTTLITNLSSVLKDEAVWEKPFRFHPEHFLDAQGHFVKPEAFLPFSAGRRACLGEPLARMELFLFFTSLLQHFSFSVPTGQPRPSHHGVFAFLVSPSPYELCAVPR
Sequence of Cytochrome P450 3A4 (P08684 whole entry): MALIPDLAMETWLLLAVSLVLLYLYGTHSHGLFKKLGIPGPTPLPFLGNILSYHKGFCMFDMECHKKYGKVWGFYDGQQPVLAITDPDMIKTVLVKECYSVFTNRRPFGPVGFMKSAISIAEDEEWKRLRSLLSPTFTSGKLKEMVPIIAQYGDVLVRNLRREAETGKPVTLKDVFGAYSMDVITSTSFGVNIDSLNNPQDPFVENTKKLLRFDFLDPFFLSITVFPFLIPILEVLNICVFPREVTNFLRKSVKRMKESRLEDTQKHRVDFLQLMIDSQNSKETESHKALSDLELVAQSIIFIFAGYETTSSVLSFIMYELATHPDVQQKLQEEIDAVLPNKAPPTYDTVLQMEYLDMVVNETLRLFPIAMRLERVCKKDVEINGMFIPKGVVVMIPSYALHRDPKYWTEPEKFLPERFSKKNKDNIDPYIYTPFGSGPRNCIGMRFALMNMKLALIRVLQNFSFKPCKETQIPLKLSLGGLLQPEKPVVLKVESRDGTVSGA
Sequence of Cytochrome P450 2C19 (P33261 whole entry): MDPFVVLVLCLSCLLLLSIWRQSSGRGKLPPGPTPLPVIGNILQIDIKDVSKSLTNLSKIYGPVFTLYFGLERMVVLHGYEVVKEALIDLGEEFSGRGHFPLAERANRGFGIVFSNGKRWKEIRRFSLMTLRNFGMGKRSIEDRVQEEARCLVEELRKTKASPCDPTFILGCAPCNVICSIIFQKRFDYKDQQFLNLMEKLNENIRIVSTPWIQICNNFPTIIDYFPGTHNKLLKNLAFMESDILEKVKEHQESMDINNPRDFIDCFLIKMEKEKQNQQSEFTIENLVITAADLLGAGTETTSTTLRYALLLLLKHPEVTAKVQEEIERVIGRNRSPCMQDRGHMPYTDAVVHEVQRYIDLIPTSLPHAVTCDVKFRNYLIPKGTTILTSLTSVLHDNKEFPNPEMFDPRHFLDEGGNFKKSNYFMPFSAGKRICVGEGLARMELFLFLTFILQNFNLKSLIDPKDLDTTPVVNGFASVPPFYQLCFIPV

One may read the AC50 as the concentration giving half of the maximal activity seen. In the case of `NC1(C(=O)O)CC(C(=O)O)C1` (stereo not drawn), the AC50 on Cytochrome P450 1A2 is 39.8 µM (inconclusive).

With `CCc1c2c(nc3c(C(C)C)cccc13)-c1cccc(=O)n1C2`, the AC50 was 39.8 µM (inconclusive) on Cytochrome P450 2D6 and 20 µM (inconclusive) at Cytochrome P450 2C19.

In the case of `N#Cc1ccc(CN2CC[C@@]3(CCCN(S(=O)(=O)c4ccccc4)C3)C2)cc1`, the AC50 at Cytochrome P450 1A2 was 15.8 µM (inconclusive).

For the compound `Cc1nc2c(C(=O)N3CCOCC3)cnn2c(C)c1Cc1ccc(Cl)cc1`, the concentration at half-maximal activity (AC50) on Cytochrome P450 2D6 is 25.1 µM (inconclusive).

Consider `Cc1ccc2nc(SCC(=O)c3ccc(Cl)s3)[nH]c2c1`, for which the EC50 on Streptokinase A is listed as > 150 µM (not active).

`CS(=O)(=O)Nc1cccc(-c2cncnc2NCc2cccnc2)c1`: the AC50 on Cytochrome P450 2D6 was 39.8 µM (inconclusive).

Take `CC1(C)C(=O)C(c2ccccc2)=C2CN3C(=O)N(CCc4ccccc4)C(=O)C3(Cc3ccc(F)cc3)C=C21` (stereo not drawn): the AC50 at Cytochrome P450 1A2 is 15.8 µM (inconclusive); at Cytochrome P450 2C9, 10 µM (inconclusive).

As for `CCS(=O)(=O)c1ccc(C(=O)Nc2ccccc2)c(Cl)c1Cl`, the concentration at half-maximal activity (AC50) was 14.1 µM (inconclusive) at Cytochrome P450 1A2 and 31.6 µM (inconclusive) on Cytochrome P450 2D6.

With `CCCCC(C(=O)O)C(C)CC(=O)Nc1nncs1` (stereo not drawn), the EC50 in assay [1] was > 53 µM (inactive). The IC50 in assay [2] was > 47.1 µM (inactive).

As for `CCCCC(=O)Nc1ccc(C)c(O)c1`, the AC50 on Cytochrome P450 2D6 is 17.8 µM (inconclusive); on Cytochrome P450 2C9, 14.1 µM (inconclusive).

For the compound `CCn1c(COc2ccccc2)nnc1SCC(=O)c1cccc([N+](=O)[O-])c1`, the figures for the AC50 at Cytochrome P450 1A2 and at Cytochrome P450 2C19 were 28.2 µM (inconclusive) and 39.8 µM (inconclusive), respectively.

As for `CCOC(=O)c1c[nH]nc1N=C(S)Nc1ccc(Cl)cc1`, the EC50 in [1] is > 53 µM (inactive). Also, in assay [2], the IC50 is > 47.1 µM (inactive).

Turning to `CNP(=O)(Oc1ccccc1)OC12CC3CC(CC(C3)C1)C2` (stereo not drawn), the EC50 in [1] is > 53 µM (inactive). Besides, the IC50 in [2] is > 47.1 µM (inactive).

Regarding `CC[C@@](O)(C(=O)O)c1cc2n(c(=O)c1CO)Cc1cc3ccccc3nc1-2`, the half-maximal activity concentration (AC50) at Cytochrome P450 1A2 and at Cytochrome P450 3A4 was 3.16 µM (inconclusive) throughout.

Take `Nc1nc(N)c(/N=N\c2ccc([As](=O)(O)O)c(O)c2)c(N)n1`: on Cytochrome P450 1A2, the AC50 was 6.31 µM (inconclusive).

With `Cc1cnn(CCC(=O)NN=C(S)Nc2cccc(Cl)c2)c1`, the AC50 at Cytochrome P450 1A2 is 15.8 µM (inconclusive); on Cytochrome P450 2C19, 39.8 µM (inconclusive); at Cytochrome P450 2C9, 15.8 µM (inconclusive).

In the case of `Cc1ccc2nc(-c3cccnc3)oc2c1`, the AC50 at Cytochrome P450 2D6 is 5.62 µM (inconclusive); on Cytochrome P450 2C19 it was 28.2 µM (inconclusive).

Take `COc1cc(NC(=O)CSc2cc(C)c3cc(C)cc(C)c3n2)c(C(=O)O)cc1OC`: in assay [1], the EC50 is > 53 µM (inactive). Besides, the IC50 in assay [2] was > 47.1 µM (inactive).

Turning to `CCCC(=O)Nc1ccc(-c2nc3cc(C)c(C)cc3o2)c(O)c1`, the EC50 in assay [1] is > 53 µM (inactive). Also, the IC50 in assay [2] was > 47.1 µM (inactive).

As for `O=C(Nc1ccccc1)N1CC2(CCN(C(=O)c3cnccn3)CC2)C1`, at Cytochrome P450 1A2, the AC50 was 20 µM (inconclusive).

In the case of `CCOc1ccccc1/C=C(/NC(=O)c1ccccc1)C(=O)NC(C)c1ccccc1` (stereo not drawn), the EC50 in assay [1] is > 53 µM (inactive). In assay [2], the IC50 is > 47.1 µM (inactive).

As for `O=C(/C=C\c1ccc(O)c(O)c1)O[C@@H](Cc1ccc(O)c(O)c1)C(=O)O`, at Cytochrome P450 1A2, the half-maximal activity concentration (AC50) is 25.1 µM (inconclusive).

Consider `CC(C)(C)OC(=O)NCCCC[C@H](NC(=O)c1[nH]cnc1C(=O)N[C@@H](Cc1ccccc1)C(=O)OC(C)(C)C)C(=O)OC(C)(C)C`, for which the AC50 on Paired box protein Pax-8 was 7.6 µM (active).

In the case of `N#CCCn1c(=O)c(-c2cccc(C#N)c2)nc2cnc(N3CCOCC3)nc21`, the half-maximal activity concentration (AC50) at Cytochrome P450 1A2 and at Cytochrome P450 3A4 was 15.8 µM (inconclusive) throughout.

As for `Cn1cccc1C(=O)N1CCC[C@@]2(CCN(Cc3ccc(C#N)cc3)C2)C1`, the half-maximal activity concentration (AC50) on Cytochrome P450 2D6 is 20 µM (inconclusive).

For the compound `O=C(Nc1ccn(CCCNCc2ccc3c(c2)OCO3)c(=O)n1)OCc1ccccc1`, the EC50 in assay [1] is > 53 µM (inactive). Also, in assay [2], the IC50 was > 47.1 µM (inactive).

For the compound `N#CCSc1nc2ccc(N3CCCCC3)cc2c(=O)n1Cc1ccccc1`, the figures for the AC50 at Cytochrome P450 2D6 and at Cytochrome P450 2C9 were 5.62 µM (inconclusive) and 4.47 µM (inconclusive), respectively.

With `O=[N+]([O-])c1cccc(-c2nc(-c3ccccn3)no2)c1`, the EC50 in [1] was > 53 µM (inactive). Besides, the IC50 in assay [2] was > 47.1 µM (inactive).

For `CCCn1nc(C(=O)NCC(C)(C)N2CCOCC2)c2ccccc2c1=O`, the AC50 on Cytochrome P450 2D6 was 3.98 µM (inconclusive); at Cytochrome P450 2C9, 39.8 µM (inconclusive).

For the compound `O[C@]1(c2ccccc2)c2ccccc2N=C2NCCN21`, on Cytochrome P450 2D6, the AC50 is 2.51 µM (inconclusive).

For the compound `O=C(Nc1ccc(S(=O)(=O)N2CCOCC2)cc1)c1ccc(Cl)c([N+](=O)[O-])c1`, the EC50 in [1] is > 53 µM (inactive). Moreover, in assay [2], the IC50 is > 47.1 µM (inactive).

`O=C(NCCN1CCN(C(=O)NC2CCCCC2)CC1)NC1CCCCC1`: the EC50 in [1] was > 53 µM (inactive). In addition, the IC50 in assay [2] was > 47.1 µM (inactive).

Consider `Cc1onc(O)c1CC[C@H](N)C(=O)O`, for which the AC50 at Cytochrome P450 1A2 is 39.8 µM (inconclusive).

For the compound `O=C(O)c1ccc(/C=N/Nc2cccc(C(F)(F)F)c2)cc1`, the EC50 in [1] was > 53 µM (inactive). In addition, in assay [2], the IC50 was 43.7 µM (active).

Regarding `O=C(NC1CCCC1)C1CCC(CNS(=O)(=O)c2ccc(F)cc2)CC1` (stereo not drawn), the EC50 in [1] was > 53 µM (inactive). In addition, the IC50 in [2] is > 47.1 µM (inactive).

For the compound `CCOc1cc(NC(=O)C2CCCCC2)c(OCC)cc1NC(=O)c1ccco1`, the results for the AC50 on Cytochrome P450 1A2, at Cytochrome P450 2C9 and at Cytochrome P450 3A4 were 2 µM (inconclusive), 11.2 µM (inconclusive) and 1.12 µM (inconclusive), respectively.

Take `COc1ccc(NC(=S)Nc2ccccc2)cc1`: the concentration at half-maximal activity (AC50) at Cytochrome P450 1A2 was 1.26 µM (inconclusive).

Turning to `COc1cc(/C=N\NC(=O)c2ccc(-c3ccccc3)cc2)cc(OC)c1OC(C)=O`, the AC50 on Paired box protein Pax-8 is 0.728 µM (active).

Regarding `Cc1ccc(N(C(=O)Cn2nnc(-c3ccc(F)cc3)n2)C(CC(C)C)C(=O)NCC2CCCO2)cc1` (stereo not drawn), the AC50 at Cytochrome P450 2D6 is 25.1 µM (inconclusive).

As to `O=c1c(CCc2ccccc2)nc2cnc(N3CCNCC3)nc2n1Cc1ccc(F)cc1`, the AC50 is 10 µM (inconclusive) at Cytochrome P450 1A2 and 25.1 µM (inconclusive) at Cytochrome P450 2D6.

Consider `COCCNc1ccnc(-c2ccccc2CN(C)C)n1`, for which the AC50 at Cytochrome P450 2D6 is 39.8 µM (inconclusive).
